The values that follow come from article PMC8286840, “Identifying SARS-CoV-2 antiviral compounds by screening for small molecule inhibitors of Nsp3 papain-like protease” (Biochemical Journal, 2021).

Counter-ions that a name gives are not always drawn. Like-named read-outs stand apart in the source and are kept apart here.

The target in assay [1] is T1, SARS-CoV-2 PLpro (nsp3 1564–1878) (Severe acute respiratory syndrome coronavirus 2, UniProt P0DTD1). The experiment in a line: biochemical. Also noted: FRET-quenched peptide (Pro3) cleavage by PLpro, 10 min pre-incubation, slope over 20 min, normalised to no-compound control. Conditions: low concentration screen, read-out: % of control remaining.
Assay [2] concerns the target T1, SARS-CoV-2 PLpro (nsp3 1564–1878). As to the kind of experiment: biochemical. On the set-up: FRET-quenched peptide (Pro3) cleavage by PLpro, 10 min pre-incubation, slope over 20 min, normalised to no-compound control. Conditions: high concentration screen, read-out: % of control remaining.

With `C[N+](C)(C)CCOP(=O)(O)OP(=O)([O-])OC[C@H]1O[C@@H](n2ccc(N)nc2=O)[C@H](O)[C@@H]1O` [Citicoline sodium], the remaining activity at 1.25 µM in assay [1] (Well no.=375) came to 91.9%. Further, in assay [2] (Well no.=375), the remaining activity at 3.75 µM came out at 101%.
As to `CCn1cc(C(=O)O)c(=O)c2cc(F)c(N3CCNC(C)C3)c(F)c21` (stereo not shown) [Lomefloxacin], the remaining activity at 1.25 µM in assay [1] (Well no.=2272) was 95.3%. In assay [2] (Well no.=2272), the remaining activity at 3.75 µM turned out to be 96.1%.
With `C[N+](C)(C)CCC(=O)c1cccc2ccccc12` [2-(alpha-Naphthoyl)ethyltrimethylammonium iodide], in assay [1] (Well no.=1051), the remaining activity at 1.25 µM was 96.5%. In assay [2] (Well no.=1051), the remaining activity at 3.75 µM turned out to be 103%.
`COc1cc(C(=O)OC2CC3CCC(C2)N3C)ccc1O` (stereo not shown) [Fillalbin]: the remaining activity at 1.25 µM in assay [1] (Well no.=3539) was 92.8%. Moreover, the remaining activity at 3.75 µM in assay [2] (Well no.=3539) was 97.4%.
Take `C[C@H](N)C(=O)O` [L-Alanine]: the remaining activity at 1.25 µM in assay [1] (Well no.=7749) turned out to be 95.2%. For the same compound, the remaining activity at 3.75 µM in assay [2] (Well no.=7749) was determined as 97.6%.
On to `CN[C@@H]1[C@@H](O[C@H]2O[C@H](CO)[C@@H](N)[C@H](O)[C@H]2O)O[C@H]2C[C@@H](N)[C@@H](O[C@H]3[C@H](O)[C@@H](O)[C@H](N)C[C@@H]3N)O[C@@H]2[C@@H]1O` [Apramycin], for which, in assay [1] (Well no.=2127), the remaining activity at 1.25 µM was 99.8%. The remaining activity at 3.75 µM in assay [2] (Well no.=2127) is 102%.
With `C=C[C@@]1(C)CC(=O)[C@]2(O)[C@@]3(C)[C@@H](O)CCC(C)(C)[C@@H]3[C@H](O)[C@H](OC(C)=O)[C@@]2(C)O1` [Forskolin], the remaining activity at 1.25 µM in assay [1] (Well no.=423) was found to be 99.9%; in assay [1] (Well no.=3281), 99.5%; in assay [1] (Well no.=8331), 98.2%. In addition, the values for the remaining activity at 3.75 µM in assay [2] (Well no.=423), in assay [2] (Well no.=3281) and in assay [2] (Well no.=8331) were 98.9%, 99.2% and 95.4%, respectively.
For `Cc1sc2c(c1C)C(c1ccc(Cl)cc1)=N[C@@H](CC(N)=O)c1nnc(C)n1-2` [CPI203], the remaining activity at 1.25 µM in assay [1] (Well no.=5824) was 99.9%. Besides, the remaining activity at 3.75 µM in assay [2] (Well no.=5824) turned out to be 98%.
On to `N#C/C(=C(/N)Sc1ccc(N)cc1)c1ccccc1C(F)(F)F` [MEK1/2 Inhibitor], for which the remaining activity at 1.25 µM in assay [1] (Well no.=2562) was determined as 94.4%. Besides, the remaining activity at 3.75 µM in assay [2] (Well no.=2562) is 96.8%.
As for `CC(=O)N1CCN(C(=O)/C=C/c2ccc(Sc3ccccc3C(C)C)c([N+](=O)[O-])c2)CC1` [4-[(1E)-3-(4-acetyl-1-piperazinyl)-3-oxo-1-propenyl]-2-nitrophenyl 2-isopropylphenyl sulfide], in assay [1] (Well no.=5662), the remaining activity at 1.25 µM worked out at 94.9%. For the same compound, the remaining activity at 3.75 µM in assay [2] (Well no.=5662) was found to be 94.5%.
With `CC1(C)S[C@@H]2[C@H](NC(=O)[C@H](N)c3ccc(O)cc3)C(=O)N2[C@H]1C(=O)O` [Amoxicillin (trihydrate)], the remaining activity at 1.25 µM in assay [1] (Well no.=8222) is 99.5%. In assay [2] (Well no.=8222), the remaining activity at 3.75 µM amounted to 96.8%.
Take `CC(=O)O[C@]1(C(C)=O)CC[C@H]2[C@@H]3C[C@H](C)C4=CC(=O)CC[C@]4(C)[C@H]3CC[C@@]21C` [Medroxyprogesterone 17-Acetate]: the remaining activity at 1.25 µM in assay [1] (Well no.=1949) worked out at 103%. Further, in assay [2] (Well no.=1949), the remaining activity at 3.75 µM was found to be 104%.
As to `CCCCCCn1c(O)c(N=NC(=O)c2ccccc2)c2ccccc21` [MDA 19], in assay [1] (Well no.=7099), the remaining activity at 1.25 µM stood at 103%. Also, the remaining activity at 3.75 µM in assay [2] (Well no.=7099) is 103%.
With `O=C(O)[C@]1(Cc2cccc(Nc3nccs3)n2)CC[C@@H](Oc2cccc(Cl)c2F)CC1` [MK-5108 (VX-689)], the remaining activity at 1.25 µM in assay [1] (Well no.=4733) turned out to be 101%. Moreover, in assay [2] (Well no.=4733), the remaining activity at 3.75 µM is 97.2%.
Turning to `COc1ccc(-c2cnc3c(-c4ccsc4)cnn3c2)cc1` [VEGF Receptor 2 Kinase Inhibitor IV], the remaining activity at 1.25 µM in assay [1] (Well no.=2655) amounted to 95.2%. The remaining activity at 3.75 µM in assay [2] (Well no.=2655) was 97%.
In the case of `N[C@@H](Cc1c[nH]c2ccc(O)cc12)C(=O)O` [L-5-Hydroxytryptophan], in assay [1] (Well no.=7409), the remaining activity at 1.25 µM turned out to be 99.9%. In addition, in assay [2] (Well no.=7409), the remaining activity at 3.75 µM is 104%.
Turning to `O=C1NC(=O)c2c1c1c3ccccc3n3c1c1c2c2ccccc2n1C1CCC3O1` [9,10,11,12-Tetrahydro-9,12-epoxy-1H-diindolo[1,2,3-fg:3',2',1'-kl]pyrrolo[3,4-i][1,6]benzodiazocine-1,3(2H)-dione], in assay [1] (Well no.=2578), the remaining activity at 1.25 µM is 99%. Also, the remaining activity at 3.75 µM in assay [2] (Well no.=2578) was 101%.
As for `FC(F)(F)c1cc(CO[C@H]2CCCN[C@H]2c2ccccc2)cc(C(F)(F)F)c1` [L-733,060 hydrochloride], the remaining activity at 1.25 µM in assay [1] (Well no.=918) turned out to be 99.8%. In addition, in assay [2] (Well no.=918), the remaining activity at 3.75 µM stood at 103%.
With `COc1ccc(C2=N[C@@H](c3ccc(Cl)cc3)[C@@H](c3ccc(Cl)cc3)N2C(=O)N2CCNC(=O)C2)c(OC(C)C)c1` [Nutlin-3], the remaining activity at 1.25 µM in assay [1] (Well no.=4621) was determined as 104%. In addition, the remaining activity at 3.75 µM in assay [2] (Well no.=4621) was determined as 108%.
As to `Cc1nc(C)c(C)nc1C` [Tetramethylpyrazine], the remaining activity at 1.25 µM in assay [1] (Well no.=4143) was found to be 98.6%. The remaining activity at 3.75 µM in assay [2] (Well no.=4143) came out at 97.4%.
Regarding `O=C(O)CCC(=O)Nc1ccc(S(=O)(=O)Nc2nccs2)cc1` [Succinylsulfathiazole], the remaining activity at 1.25 µM in assay [1] (Well no.=8034) amounted to 89.3%. For the same compound, the remaining activity at 3.75 µM in assay [2] (Well no.=8034) came to 89.7%.
`O=C(O)CCc1ccc(NCc2cccc(Oc3ccccc3)c2)cc1` [GW9508]: the values for the remaining activity at 1.25 µM in assay [1] (Well no.=5182) and in assay [1] (Well no.=8531) were 103% and 97.9%, respectively. For the same compound, the values for the remaining activity at 3.75 µM in assay [2] (Well no.=5182) and in assay [2] (Well no.=8531) were 99.8% and 98.8%, respectively.
Take `Cc1cc(NS(=O)(=O)c2ccc(N)cc2)no1` [Sulfamethoxazole]: in assay [1] (Well no.=4662), the remaining activity at 1.25 µM came out at 102%. Further, the remaining activity at 3.75 µM in assay [2] (Well no.=4662) was determined as 98.1%; in assay [2] (Well no.=7398), 107%.
As to `CC(Cc1ccccc1)(NC(=O)CN)c1ccccc1` (stereo not shown) [Remacemide hydrochloride], the remaining activity at 1.25 µM in assay [1] (Well no.=5380) is 99%. In addition, in assay [2] (Well no.=5380), the remaining activity at 3.75 µM was found to be 94.8%.
Consider `O=S(=O)(O)Oc1ccc(C(c2ccc(OS(=O)(=O)O)cc2)c2ccccn2)cc1` [Sodium Picosulfate], for which the remaining activity at 1.25 µM in assay [1] (Well no.=4654) worked out at 103%. For the same compound, the remaining activity at 3.75 µM in assay [2] (Well no.=4654) amounted to 99.8%.
`CC(=O)N[C@@H](CCCN)C(=O)O` [N-Acetylornithine]: the remaining activity at 1.25 µM in assay [1] (Well no.=7731) came out at 102%; in assay [1] (Well no.=8748) it was 99.4%. Also, the remaining activity at 3.75 µM in assay [2] (Well no.=7731) stood at 104%; in assay [2] (Well no.=8748), 98.7%.
On to `Nc1nc2ccc(Cl)cc2c2nc(-c3ccco3)nn12` [CGS-15943], for which the remaining activity at 1.25 µM in assay [1] (Well no.=393) stood at 104%. In assay [2] (Well no.=393), the remaining activity at 3.75 µM came out at 104%.
On to `C[C@@H](C(=O)O)N(C)C(=O)OCC1c2ccccc2-c2ccccc21` [Fmoc-N-Me-Ala-OH], for which the remaining activity at 1.25 µM in assay [1] (Well no.=7976) came to 91.3%. In addition, the remaining activity at 3.75 µM in assay [2] (Well no.=7976) came out at 92.8%.
Consider `Cc1ccc(O)c(N=Nc2ccccc2)n1` [SIB 1757], for which the remaining activity at 1.25 µM in assay [1] (Well no.=1371) was determined as 99.7%. Besides, in assay [2] (Well no.=1371), the remaining activity at 3.75 µM turned out to be 102%.
